Assay results from ChEMBL document CHEMBL4334505, “Tri- and Diterpenoids from Stillingia loranthacea as Inhibitors of Zika Virus Replication” (J Nat Prod, 2019).
Activity calls are given as the source filed them. No cut-off for these calls is given here.

Legend:
Zika virus [1] = experiment: Antiviral activity against Zika virus PE243 infected in African green monkey Vero cells assessed as reduction in viral replication by measuring viral titer per ml of cells at CC20 incubated for 5 days by standard TCID50 method (reference value: 6.7); format: functional
[2] = (§1) Cytotoxicity against African green monkey Vero cells assessed as reduction in cell viability measured after 1 hr by MTT assay; format: cell-based; conditions: chlorocebus sabaeus, Vero cells
Vero [3] = experiment: as §1; format: cell-based; conditions: chlorocebus sabaeus, vero, 1 h
Zika virus [4] = experiment: Antiviral activity against Zika virus PE243 infected in African green monkey Vero cells assessed as reduction in viral replication by measuring viral titer at CC20 incubated for 5 days by standard TCID50 method; format: functional, organism-based
[5] = (§2) Cytotoxicity against African green monkey Vero cells assessed as reduction in cell viability measured after 120 hrs by MTT assay; format: cell-based; conditions: chlorocebus sabaeus, Vero cells
Vero [6] = experiment: as §2; format: cell-based; conditions: chlorocebus sabaeus, vero, 120 h

In the case of `CC1(C)CC[C@@H]2C(=O)C=C3[C@]4(C)CC[C@@H]5[C@](C)(CC[C@@H](OC(=O)/C=C/c6ccccc6)[C@@]5(C)C(=O)O)[C@H]4CC[C@@]3(C)[C@@H]2C1`, the “log10 TCID50” value (Zika virus [1]) was 1.7, the CC50 at 1 h [2] was 24.6 to 848 µM and the CC20 (Vero [3]) was 8.7 to 328 µM. The inhibition (Zika virus [4]) was “Active”.
With `CCCCCCCCCCCC(=O)O[C@@]12C[C@@H](C)[C@@]3(O)[C@@H](C=C(C=O)C[C@]4(O)C(=O)C(C)=C[C@@H]34)[C@@H]1C2(C)C` the CC50 at 1 h [2] was 24.6 to 848 µM and the CC20 (Vero [3]) was 8.7 to 328 µM.
Work on `CC/C(C)=C/C(=O)O[C@@H]1[C@H](C)C[C@H]2O[C@]1(O)[C@@H](O)[C@@]1(C)CC[C@H](O1)C(C)(C)/C=C/[C@H](C)C2=O` yielded a CC20 (Vero [3]) of 8.7 to 328 µM.
For `C/C(=C\C(=O)O[C@@H]1[C@H](C)C[C@H]2O[C@]1(O)[C@@H](O)[C@@]1(C)CC[C@H](O1)C(C)(C)/C=C/[C@H](C)C2=O)C(C)O` (stereo partly specified), the CC20 (Vero [3]) was 8.7 to 328 µM.
`CC1(C)CC[C@@H]2C(=O)C=C3[C@]4(C)CC[C@@H]5[C@](C)(CC[C@@H](OC(=O)c6ccccc6)[C@@]5(C)C(=O)O)[C@H]4CC[C@@]3(C)[C@@H]2C1` showed a CC50 at 1 h [2] of 24.6 to 848 µM and a CC20 (Vero [3]) of 8.7 to 328 µM.
With `CCCCCCCCCCCCCC(=O)O[C@@]12C[C@@H](C)[C@@]3(O)[C@@H](C=C(CO)C[C@]4(O)C(=O)C(C)=C[C@@H]34)[C@@H]1C2(C)C` the CC50 at 1 h [2] was 24.6 to 848 µM, the CC20 (Vero [3]) was 8.7 to 328 µM and the inhibition (Zika virus [4]) was “Active”.
For `CCCCCCCCCCCCCCCC(=O)O[C@@H]1[C@@H](C)[C@]2(O)[C@@H]3C=C(C)C(=O)[C@@H]3CC(C=O)=C[C@H]2[C@@H]2C(C)(C)[C@]12OC(C)=O`, the CC50 at 1 h [2] was 24.6 to 848 µM and the CC20 (Vero [3]) was 8.7 to 328 µM.
For `CCCCCCCCCCCCCCCC(=O)O[C@@H]1[C@@H](C)[C@]2(O)[C@@H]3C=C(C)C(=O)[C@@H]3CC(CO)=C[C@H]2[C@@H]2C(C)(C)[C@]12OC(C)=O`, the CC50 at 1 h [2] was 24.6 to 848 µM, the CC20 (Vero [3]) was 8.7 to 328 µM and the inhibition (Zika virus [4]) was “Active”.
In the case of `CSc1ncnc2c1ncn2[C@@H]1O[C@H](CO)[C@@H](O)[C@H]1O`, the CC50 at 120 h [5] was 291 µM, the CC20 (Vero [6]) was 60.5 µM and the “log10 TCID50” value (Zika virus [1]) was 5.4.
With `CCCCCCCCCCCC(=O)O[C@@]12C[C@@H](C)[C@@]3(O)[C@@H](C=C(CO)C[C@]4(O)C(=O)C(C)=C[C@@H]34)[C@@H]1C2(C)C` the CC50 at 1 h [2] was 24.6 to 848 µM, the CC20 (Vero [3]) was 8.7 to 328 µM and the inhibition (Zika virus [4]) was “Active”.
`CC(=O)O[C@H](C)/C(C)=C/C(=O)O[C@@H]1[C@H](C)C[C@H]2O[C@]1(O)[C@@H](O)[C@@]1(C)CC[C@H](O1)C(C)(C)/C=C/[C@H](C)C2=O` gave a CC20 (Vero [3]) of 8.7 to 328 µM.
Molecule `CCCCCCCC/C=C\CCCC(=O)O[C@@]12C[C@@H](C)[C@@]3(O)[C@@H](C=C(C=O)C[C@]4(O)C(=O)C(C)=C[C@@H]34)[C@@H]1C2(C)C` has a CC50 at 1 h [2] of 24.6 to 848 µM and a CC20 (Vero [3]) of 8.7 to 328 µM.
With `CCCCCCCC/C=C\CCCC(=O)O[C@@]12C[C@@H](C)[C@@]3(O)[C@@H](C=C(CO)C[C@]4(O)C(=O)C(C)=C[C@@H]34)[C@@H]1C2(C)C` the “log10 TCID50” value (Zika virus [1]) was 1.8, the CC50 at 1 h [2] was 24.6 to 848 µM and the CC20 (Vero [3]) was 8.7 to 328 µM. The inhibition (Zika virus [4]) was “Active”.
